Experimental data from patent publication US8815835B2, “9-aminonoscapine and its use in treating cancers, including drug-resistant cancers” (Emory University, priority 2008, dated 2014).

Tests used:
tubulin [1] = test: Tubulin binding assay (fluorescence quenching, dissociation constant); conditions: 2 μM tubulin, 25 mM PIPES pH 6.8, 30 min at 25° C.; double reciprocal plot; mean±SD, four experiments
Experimental: Noscapine and 9-aminonoscapine (0-150 μM) were incubated with 2 μM tubulin in 25 mM PIPES, pH 6.8, 3 mM MgSO4, and 1 mM EGTA for 30 min at 25° C. The fluorescence intensities of tubulin in the absence and presence of different concentrations of the agents were monitored in a JASCO FP-6500 spectrofluorometer (JASCO, Tokyo, Japan) using a cuvette of 0.3-cm path length.
The excitation wavelength was 295 nm. The inner filter effects were corrected using a formula: […],
where Aex and Aem are the absorbance at the excitation and emission wavelengths.
The dissociation constant (Kd) was estimated using the following equation. ΔF=ΔFmaxL/(Kd+L)
where, ΔF is change in the fluorescence intensity of the tubulin upon binding to noscapine or 9-aminonoscapine, ΔFmax is the maximum change in the fluorescence intensity of the protein when it is fully bound with noscapine or 9-aminonoscapine, and L is the concentration of the ligand.
The ΔFmax value was calculated by the GraphPad Prism 5 software. ΔF was calculated by subtracting the fluorescence intensity of tubulin in the absence of noscapine or 9-aminonoscapine from the fluorescence intensity of tubulin in the presence of different concentrations of noscapine or 9-aminonoscapine.
The data were statistically analyzed and curve fitted using GraphPad Prism 5 software. […]

[2] = tested on: human lymphoblastoid cells CEM; test: Cell proliferation inhibition, CEM; type: cell-based; conditions: in words
[3] = tested on: paclitaxel-resistant variant (1A9/PTX22); test: Cell proliferation inhibition, 1A9/PTX22; type: cell-based; conditions: 1A9/PTX22, in words
[4] = tested on: vinblastine-resistant variant CEM/VLB100; test: Cell proliferation inhibition, CEM/VLB100; type: cell-based, human; conditions: CEM/VLB100, in words
[5] = tested on: 1A9 (ovarian cancer cells); test: Cell proliferation inhibition, 1A9; type: cell-based; conditions: 1A9, in words
[6] = tested on: panel of 60 human tumor cell lines; test: NCI 60-tumor cell line panel, Sulforhodamine B proliferation assay; type: cell-based; conditions: 48 h treatment, in words; IC50 values only in FIG. 2
Experimental: The panel of 60 human tumor cell lines is organized into subpanels representing leukemia, non-small cell lung, colon, CNS, melanoma, renal, ovarian, breast and prostrate cancer lines. Cells were treated with 9-aminonoscapine at increasing gradient concentrations for 48 h. The IC50 values, which stand for the drug concentration needed to prevent cell proliferation by 50% was then measured using an in vitro Sulforhodamine B assay. Panels show bar-graphically the comparison of IC50 values of 9-aminonoscapine (black bars) for cancer cell lines of various tissue origins.

[7] = tested on: teniposide-resistant variant CEM/VM-1-5; test: Cell proliferation inhibition, CEM/VM-1-5; type: cell-based, human; conditions: CEM/VM-1-5, in words
tubulin [8] = test: Sedimentation assay of tubulin polymerization (polymer mass); type: biochemical; conditions: for Average % increase in polymer level: tubulin 10 μM, 37° C., 30 min
Experimental: Tubulin solution was centrifuged for 10 min at 80000 g at 4° C. Soluble tubulin was measured by Bradford method. Tubulin (10 μM) was mixed with different concentrations of 9-amino-Noscapine ([…]) in the assembly buffer (100 mM PIPES at pH 6.8, 3 mM MgSO4, 1 mM EGTA, 1 mM GTP, and 1 M sodium glutamate). A reaction control with DMSO was also set up.
Polymerization was carried on by maintaining the temperature at 37° C. in the water bath for 30 min. After polymerization, the reaction mixture was centrifuged at 120000 g at 30° C. for 30 min. The soluble tubulin content was measured by Bradford method. Polymer mass of tubulin was found out by deducting soluble tubulin mass from the total tubulin content.
Tubulin was polymerized in presence or absence of 9-aminonoscapine to observe its effect on polymer formation. Polymer mass of tubulin was measured by sedimentation assay. Before polymerization soluble tubulin comprises total tubulin. Total tubulin content was measured by measuring soluble tubulin by Bradford method. After polymerization, soluble tubulin content was measured and deducted from total tubulin content to find out the polymeric tubulin level.

| Compound | Kd (tubulin [1]) | inhibition of cell proliferation [2] | inhibition of cell proliferation [3] | inhibition of cell proliferation [4] | inhibition of cell proliferation [5] | proliferation of various human cancer cells [6] | inhibition of cell proliferation [7] | Average % increase in polymer level (tubulin [8]; 25 μM 9-aminonoscapine) | Average % increase in polymer level (tubulin [8]; 50 μM 9-aminonoscapine) | Average % increase in polymer level (tubulin [8]; 100 μM 9-aminonoscapine) | Average % increase in polymer level (tubulin [8]; 100 μM 9-aminonoscapine, listed as 9-amino-noscapine) | effect on the assembly of tubulin into microtubules in vitro (tubulin [8]; in words) |
| --- | --- | --- | --- | --- | --- | --- | --- | --- | --- | --- | --- | --- |
| COc1ccc2c(c1OC)C(=O)O[C@@H]2[C@H]1c2c(cc3c(c2OC)OCO3)CCN1C [noscapine, (S)-6,7-dimethoxy-3-((R)-4-methoxy-6-methyl-5,6,7,8-tetrahydro[1,3]-dioxolo-[4,5-g]isoquinolin-5-yl)isobenzo-furan-1(3H)-one] | 152 ± 1 µM | – | – | – | – | – | – | – | – | – | – | – |
| COc1ccc2c(c1OC)C(=O)O[C@@H]2[C@H]1c2c(c(N)c3c(c2OC)OCO3)CCN1C [9-aminonoscapine, (S)-6,7-dimethoxy-3-((R)-4-methoxy-6-methyl-9-amino-5,6,7,8-tetrahydro-[1,3]dioxolo[4,5-g]isoquinolin-5-yl)isobenzofuran-1(3H)-one] | 14 ± 1 µM | effectively inhibits cell proliferation | effectively inhibits cell proliferation | effectively inhibits cell proliferation | effectively inhibits cell proliferation | inhibits the proliferation | effectively inhibits cell proliferation | 2.8 ± 0.98% | 3.2 ± 3.6% | 6.3 ± 3.8% | 6.3±3.8% | negligible effect |
